According to patent US20230233569A1 (Revolution Medicines, Inc., priority 2020, published 2023):
Where two headings read alike, the source gives them in different places.

Experiments:
KRAS G12C = KRAS G12C (Homo sapiens, UniProt P01116+P62937, G12C); assay: Disruption of BRAF RBD interaction with Ras (FRET / MOA assay, with Cyclophilin A); type: biochemical
Summary of the method: (§1)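 Compound-driven ternary complex formation between nucleotide-loaded K-Ras and Cyclophilin A was measured as loss of BRAF RBD binding. Compounds (10-point 3-fold series, top 30 μM final) were incubated 3 h at 25 °C, then anti-His Eu-W1024 (10 nM) and anti-GST allophycocyanin (50 nM) added for 1.5 h. IC50 was taken from the TR-FRET ratio decrease versus DMSO.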

KRAS G13C = KRAS G13C (Homo sapiens, UniProt P01116+P62937, G13C); assay: as above; type: biochemical
Summary of the method: as §1

KRAS G12S = KRAS G12S (Homo sapiens, UniProt P01116+P62937, G12S); assay: as above; type: biochemical
Summary of the method: as §1

KRAS WT = KRAS WT (Homo sapiens, UniProt P01116+P62937); assay: as above; type: biochemical
Summary of the method: as §1

KRAS G12D = KRAS G12D (Homo sapiens, UniProt P01116+P62937, G12D); assay: as above; type: biochemical
Summary of the method: as §1

KRAS G12V = KRAS G12V (Homo sapiens, UniProt P01116+P62937, G12V); assay: as above; type: biochemical
Summary of the method: as §1

NRAS G12C = NRAS G12C (Homo sapiens, UniProt P01111+P62937, G12C); assay: as above; type: biochemical
KRAS G13D = KRAS G13D (Homo sapiens, UniProt P01116+P62937, G13D); assay: as above; type: biochemical
Summary of the method: as §1

NCI-H358 (K-Ras G12C) = assay: CellTiter-Glo cell viability assay, 5-day treatment; type: cell-based; settings: Homo sapiens, NCI-H358, 120 h, 5-day treatment; read-out: H358 Cell Viability assay data (K-Ras G12C, IC50)
Summary of the method: (§2)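 Viability is read as luminescence on day 5 after direct compound addition to plated cells, following about 30 minutes' room-temperature equilibration. Each signal is scaled to mean DMSO as 100%.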

Capan-1 (K-Ras G12V) = assay: as above; type: cell-based; settings: Homo sapiens, CAPAN-1, 120 h, 5-day treatment; read-out: Capan-1 Cell Viability assay data (K-Ras G12V, IC50)
Summary of the method: as §2

[1] = read-out: KRAS G12C FRET data, IC50
[2] = read-out: KRAS G13C FRET data, IC50
[3] = read-out: KRAS G12S FRET data, IC50
[4] = KRAS WT, read-out: KRAS WT FRET data IC50
[5] = read-out: KRAS G12D FRET data, IC50
[6] = KRAS G12V, read-out: KRAS G12V FRET data IC50
[7] = NRAS G12C, read-out: NRAS G12C FRET data IC50
[8] = KRAS G13D, read-out: KRAS G13D FRET data IC50

Sequence of KRAS G13D (P01116 1-169 isoform P01116-2 G13D limits assumed): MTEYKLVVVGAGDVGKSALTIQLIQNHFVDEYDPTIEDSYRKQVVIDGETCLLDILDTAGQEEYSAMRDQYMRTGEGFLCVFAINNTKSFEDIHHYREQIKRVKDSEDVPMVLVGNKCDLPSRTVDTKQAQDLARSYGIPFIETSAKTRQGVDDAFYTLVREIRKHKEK
Sequence of KRAS G13D (P62937 whole entry): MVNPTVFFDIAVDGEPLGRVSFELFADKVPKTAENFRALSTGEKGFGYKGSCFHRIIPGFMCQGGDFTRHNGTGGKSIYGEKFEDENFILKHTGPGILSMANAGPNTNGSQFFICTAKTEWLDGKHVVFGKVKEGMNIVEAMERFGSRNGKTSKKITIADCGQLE
Sequence of KRAS WT (P01116 1-169 isoform P01116-2 limits assumed): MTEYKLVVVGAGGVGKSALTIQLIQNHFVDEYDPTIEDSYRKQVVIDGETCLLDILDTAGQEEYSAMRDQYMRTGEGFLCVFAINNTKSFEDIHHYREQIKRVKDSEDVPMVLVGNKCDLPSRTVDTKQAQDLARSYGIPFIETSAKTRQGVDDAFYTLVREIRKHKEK
Sequence of KRAS WT (P62937 whole entry): as the sequence (P62937 whole entry) above
Sequence of KRAS G13C (P01116 1-169 isoform P01116-2 G13C): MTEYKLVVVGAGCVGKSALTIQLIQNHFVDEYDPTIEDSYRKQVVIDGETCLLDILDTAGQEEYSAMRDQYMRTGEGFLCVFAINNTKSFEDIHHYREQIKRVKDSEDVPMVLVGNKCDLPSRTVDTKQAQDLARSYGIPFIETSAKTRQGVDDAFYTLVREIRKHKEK
Sequence of KRAS G13C (P62937 whole entry): as the sequence (P62937 whole entry) above
Sequence of KRAS G12D (P01116 1-169 isoform P01116-2 G12D limits assumed): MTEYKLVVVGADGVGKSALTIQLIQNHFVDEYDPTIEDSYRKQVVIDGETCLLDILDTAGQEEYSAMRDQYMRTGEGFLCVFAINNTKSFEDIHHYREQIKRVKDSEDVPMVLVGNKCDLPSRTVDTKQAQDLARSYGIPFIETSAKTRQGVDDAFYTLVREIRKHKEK
Sequence of KRAS G12D (P62937 whole entry): as the sequence (P62937 whole entry) above
Sequence of KRAS G12S (P01116 1-169 isoform P01116-2 G12S limits assumed): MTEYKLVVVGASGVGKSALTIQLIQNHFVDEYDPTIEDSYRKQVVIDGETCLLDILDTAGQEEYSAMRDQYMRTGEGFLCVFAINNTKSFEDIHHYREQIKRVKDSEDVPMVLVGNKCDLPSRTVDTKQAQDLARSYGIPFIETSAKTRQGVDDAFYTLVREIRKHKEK
Sequence of KRAS G12S (P62937 whole entry): as the sequence (P62937 whole entry) above
Sequence of NRAS G12C (P01111 whole entry G12C): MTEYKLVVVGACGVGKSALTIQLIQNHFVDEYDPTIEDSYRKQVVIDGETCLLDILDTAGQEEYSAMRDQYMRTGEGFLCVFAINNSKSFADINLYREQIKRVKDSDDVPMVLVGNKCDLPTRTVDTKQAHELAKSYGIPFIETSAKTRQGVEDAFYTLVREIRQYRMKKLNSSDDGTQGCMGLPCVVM
Sequence of NRAS G12C (P62937 whole entry): as the sequence (P62937 whole entry) above
Sequence of KRAS G12V (P01116 1-169 isoform P01116-2 G12V limits assumed): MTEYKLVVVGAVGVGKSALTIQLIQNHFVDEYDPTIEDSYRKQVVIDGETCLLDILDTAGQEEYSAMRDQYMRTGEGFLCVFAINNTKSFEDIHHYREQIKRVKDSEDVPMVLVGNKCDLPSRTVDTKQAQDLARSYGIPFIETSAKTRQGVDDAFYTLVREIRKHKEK
Sequence of KRAS G12V (P62937 whole entry): as the sequence (P62937 whole entry) above
Sequence of KRAS G12C (P01116 1-169 isoform P01116-2 G12C): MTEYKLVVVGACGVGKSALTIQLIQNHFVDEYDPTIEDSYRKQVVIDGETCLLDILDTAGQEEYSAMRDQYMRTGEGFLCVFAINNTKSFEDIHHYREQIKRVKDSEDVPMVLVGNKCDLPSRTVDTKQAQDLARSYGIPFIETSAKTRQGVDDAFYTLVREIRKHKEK
Sequence of KRAS G12C (P62937 whole entry): as the sequence (P62937 whole entry) above

SMILES | IC50 (KRAS G12C; KRAS G12C FRET data, IC50) [nM] | IC50 (KRAS G13C; KRAS G13C FRET data, IC50) [nM] | IC50 (KRAS G12S; KRAS G12S FRET data, IC50) [nM] | IC50 (KRAS WT; KRAS WT FRET data IC50, KRAS WT) [nM] | IC50 (KRAS G12D; KRAS G12D FRET data, IC50) [nM] | IC50 (KRAS G12V; KRAS G12V FRET data IC50, KRAS G12V) [nM] | IC50 (NRAS G12C; NRAS G12C FRET data IC50, NRAS G12C) [nM] | IC50 (KRAS G13D; KRAS G13D FRET data IC50, KRAS G13D) [nM] | IC50 (NCI-H358 (K-Ras G12C)) [nM] | IC50 (Capan-1 (K-Ras G12V)) [nM] | IC50 (KRAS G12C; [1]) [nM] | IC50 (KRAS G13C; [2]) [nM] | IC50 (KRAS G12S; [3]) [nM] | IC50 (KRAS WT; [4]) [nM] | IC50 (KRAS G12D; [5]) [nM] | IC50 (KRAS G12V; [6]) [nM] | IC50 (NRAS G12C; [7]) [nM] | IC50 (KRAS G13D; [8]) [nM]
CCn1c(-c2cnccc2COC)c2c3cc(ccc31)-c1cc(O)cc(c1)C[C@H](NC(=O)[C@H](C(C)C)N(C)C(=O)[C@H]1CCN(C=O)C1)C(=O)N1CCC[C@H](N1)C(=O)OCC(C)(C)C2 [Example A17, (2S)—N-[(8S,14S)-22-ethyl-4-hydroxy-21-[4-(methoxymethyl)pyridin-3-yl]-18,18-dimethyl-9,15-dioxo-16-oxa-10,22,28-triazapentacyclo[18.5.2.1^2,6.1^10,14.0^23,27]nonacosa-1(26),2,4,6(29),20,23(27),24-heptaen-8-yl]-2-{1-[(3S)-1-formylpyrrolidin-3-yl]-N-methylformamido}-3-methylbutanamide] | 10 to 100 | 100 to 1000 | 100 to 1000 | 100 to 1000 | 1000 to 10000 | 100 to 1000 | 100 to 1000 | 100 to 1000 | 1000 to 10000 | 1000 to 10000 | – | – | – | – | – | – | – | –
CCn1c(-c2cccnc2[C@H](C)OC)c2c3cc(ccc31)-c1cc(O)cc(c1)C[C@H](NC(=O)[C@H](C(C)C)N(C)C(=O)C1COC1)C(=O)N1CCC[C@H](N1)C(=O)OCC(C)(C)C2 [Example A18] | – | – | – | – | – | – | – | – | 100 to 1000 | 100 to 1000 | 10 to 100 | 100 to 1000 | 100 to 1000 | 100 to 1000 | 1000 to 10000 | 100 to 1000 | 100 to 1000 | 100 to 1000
CCn1c(-c2cnccc2COC)c2c3cc(ccc31)-c1cc(O)cc(c1)C[C@H](NC(=O)[C@H](C(C)C)N(C)C(=O)C1C[C@@H]1C)C(=O)N1CCC[C@H](N1)C(=O)OCC(C)(C)C2 (some centres unmarked) [Example A19] | – | – | – | – | – | – | – | – | 100 to 1000 | 100 to 1000 | 10 to 100 | 100 to 1000 | 100 to 1000 | 100 to 1000 | 1000 to 10000 | 100 to 1000 | 100 to 1000 | 100 to 1000
CCn1c(-c2cccnc2[C@H](C)OC)c2c3cc(ccc31)-c1cc(O)cc(c1)C[C@H](NC(=O)[C@H](C(C)C)N(C)C(=O)C1(CN)CC1)C(=O)N1CCC[C@H](N1)C(=O)OCC(C)(C)C2 [Example A139] | – | – | – | – | – | – | – | – | 100 to 1000 | 100 to 1000 | – | – | 10 to 100 | – | – | 10 to 100 | 10 to 100 | –
CCn1c(-c2cccnc2[C@H](C)OC)c2c3cc(ccc31)-c1cc(O)cc(c1)C[C@H](NC(=O)[C@H](C(C)C)N(C)C(=O)[C@H]1C[C@H]1F)C(=O)N1CCC[C@H](N1)C(=O)OCC(C)(C)C2 [Example A162] | – | – | – | – | – | – | – | – | 10 to 100 | 10 to 100 | – | – | – | – | – | 10 to 100 | – | –
CCn1c(-c2cccnc2[C@H](C)OC)c2c3cc(ccc31)-c1cc(O)cc(c1)C[C@H](NC(=O)[C@@H]1C[C@H]1C)C(=O)N1CCC[C@H](N1)C(=O)OCC(C)(C)C2 [Example A183] | – | – | – | – | – | – | – | – | – | 1000 to 10000 | 100 to 1000 | 100 to 1000 | 1000 to 10000 | 1000 to 10000 | > 10000 | 1000 to 10000 | 1000 to 10000 | 1000 to 10000
C=CC(=O)N1CC[C@H](C(=O)Nc2ccccc2C(=O)N[C@H]2Cc3cc(O)cc(c3)-c3ccc4c(c3)c(c(-c3cnccc3COC)n4CC)CC(C)(C)COC(=O)[C@@H]3CCCN(N3)C2=O)C1 [Example A229] | – | – | – | – | – | – | – | – | – | 1000 to 10000 | 10 to 100 | 10 to 100 | 100 to 1000 | 100 to 1000 | 100 to 1000 | 100 to 1000 | 10 to 100 | 10 to 100
CCn1c(-c2cccnc2[C@H](C)OC)c2c3cc(ccc31)-c1cc(O)cc(c1)C[C@H](NC(=O)[C@H](C(C)C)N(C)C(=O)[C@H]1CCN(C(=O)[C@]3(C)CCCN3C)C1)C(=O)N1CCC[C@H](N1)C(=O)OCC(C)(C)C2 [Example A342] | – | – | – | – | – | – | – | – | 10 to 100 | 100 to 1000 | – | – | – | – | – | – | 10 to 100 | –
